Test results taken from patent US6348309B1, “Process for inactivating viruses in blood and blood products” (priority 1989, dated 2002).
Marks after values point to notes of the source that are not given here.

How the values were obtained:
coagulation factor IX [1] = target: T1, coagulation factor IX (Homo sapiens, UniProt P00740); experiment: Coagulation factor activity in human plasma right after MB addition (Example 9); assay type: biochemical; settings: no light
T1 construct: Varying amounts of MB were added to human plasma (2 ml aliquots); from tissue; host or cells: human plasma

SV40 = assay type: cell-based
adeno-virus = experiment: Photodynamic treatment of adenovirus with freeze/thaw step (Example 8); assay type: cell-based
factor V = target: T2, factor V (Homo sapiens, UniProt P12259); experiment: Factor V content of plasma after MB and adsorbing agent (Example 14); assay type: biochemical; settings: fresh plasma + MB 10 μM, no adsorbing agent
T2 construct: MB was added to 250 ml fresh plasma; from tissue; host or cells: fresh plasma

VSV [2] = assay type: cell-based, vesicular stomatitis virus
coagulation factor IX [3] = target: T1, coagulation factor IX; experiment: Coagulation factor activity in human plasma with MB and light exposure (Example 10); assay type: biochemical
[4] = 1 to 2 mg/kg of body weight; cited from earlier work
coagulation factor V = target: T3, coagulation factor V (Homo sapiens, UniProt P12259); experiment: Coagulation factor activity in human plasma with MB and light exposure (Example 10); assay type: biochemical
T3 construct: Varying amounts of MB were added to human plasma (2 ml aliquots); from tissue; host or cells: human plasma

[5] = tested on: vesicular stomatitis virus (VSV); assay type: cell-based
HIV-1 = experiment: MB/light virus inactivation in plasma (Example 6, Table VI); assay type: cell-based; settings: illumination 10 min
Semliki Forest = assay type: cell-based
Influenza = assay type: cell-based
Vesicular Stomatitis = assay type: cell-based
VSV [6] = assay type: cell-based, vesicular stomatitis virus; remark: listed apart in the source
VSV [7] = assay type: cell-based, vesicular stomatitis virus; remark: listed apart in the source
adenovirus = experiment: Photodynamic treatment of adenovirus with pre-incubation in the dark, titrated on FL cells (Example 7); assay type: cell-based; settings: MB 1 μM; for Virus Titer: illumination 30 min 150,000 Lux
HIV-2 = experiment: MB/light virus inactivation in plasma (Example 6, Table VI); assay type: cell-based; settings: illumination 15 min; * production conditions, plastic bag 250-300 ml plasma
Calici = assay type: cell-based
factor VIII = target: T4, factor VIII (Homo sapiens, UniProt P00451); experiment: Factor VIII content of plasma after MB and adsorbing agent (Example 14); assay type: biochemical; settings: fresh plasma + MB 10 μM, no adsorbing agent
T4 construct: MB was added to 250 ml fresh plasma; from tissue; host or cells: fresh plasma
T4 sequence (P00451 20-1332 limits assumed): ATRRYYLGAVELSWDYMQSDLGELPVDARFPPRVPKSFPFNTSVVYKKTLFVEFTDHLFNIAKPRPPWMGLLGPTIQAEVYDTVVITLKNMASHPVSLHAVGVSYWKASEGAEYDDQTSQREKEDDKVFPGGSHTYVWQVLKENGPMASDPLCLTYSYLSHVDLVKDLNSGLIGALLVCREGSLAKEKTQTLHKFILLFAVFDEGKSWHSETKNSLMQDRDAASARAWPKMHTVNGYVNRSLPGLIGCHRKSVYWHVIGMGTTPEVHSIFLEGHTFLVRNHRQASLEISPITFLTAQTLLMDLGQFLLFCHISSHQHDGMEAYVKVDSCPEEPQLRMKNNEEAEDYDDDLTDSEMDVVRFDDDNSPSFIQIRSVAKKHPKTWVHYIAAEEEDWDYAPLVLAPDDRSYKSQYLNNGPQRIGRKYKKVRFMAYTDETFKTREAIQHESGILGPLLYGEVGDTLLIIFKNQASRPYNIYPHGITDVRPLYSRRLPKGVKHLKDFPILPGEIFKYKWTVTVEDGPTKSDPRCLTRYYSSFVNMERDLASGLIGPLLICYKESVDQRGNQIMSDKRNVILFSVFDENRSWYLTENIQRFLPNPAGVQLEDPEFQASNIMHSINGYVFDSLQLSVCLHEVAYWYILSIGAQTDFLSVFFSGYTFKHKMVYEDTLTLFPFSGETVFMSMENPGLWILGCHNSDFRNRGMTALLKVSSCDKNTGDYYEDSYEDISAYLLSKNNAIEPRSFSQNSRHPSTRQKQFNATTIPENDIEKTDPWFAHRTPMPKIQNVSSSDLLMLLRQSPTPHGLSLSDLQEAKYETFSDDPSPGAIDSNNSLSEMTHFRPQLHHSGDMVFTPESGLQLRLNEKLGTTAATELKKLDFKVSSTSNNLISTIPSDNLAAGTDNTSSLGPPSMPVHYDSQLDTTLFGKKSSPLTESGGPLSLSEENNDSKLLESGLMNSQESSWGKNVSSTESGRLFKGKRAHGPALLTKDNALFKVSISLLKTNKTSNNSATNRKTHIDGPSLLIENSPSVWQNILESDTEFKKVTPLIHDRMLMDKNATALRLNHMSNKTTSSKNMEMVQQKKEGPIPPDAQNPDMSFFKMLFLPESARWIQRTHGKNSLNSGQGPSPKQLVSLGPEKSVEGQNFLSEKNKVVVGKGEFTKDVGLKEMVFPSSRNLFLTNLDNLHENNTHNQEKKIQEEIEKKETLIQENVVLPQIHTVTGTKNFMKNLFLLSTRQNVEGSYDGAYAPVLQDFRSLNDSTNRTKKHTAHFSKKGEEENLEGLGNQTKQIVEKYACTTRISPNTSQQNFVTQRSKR
T4 sequence (P00451 1668-2351 limits assumed): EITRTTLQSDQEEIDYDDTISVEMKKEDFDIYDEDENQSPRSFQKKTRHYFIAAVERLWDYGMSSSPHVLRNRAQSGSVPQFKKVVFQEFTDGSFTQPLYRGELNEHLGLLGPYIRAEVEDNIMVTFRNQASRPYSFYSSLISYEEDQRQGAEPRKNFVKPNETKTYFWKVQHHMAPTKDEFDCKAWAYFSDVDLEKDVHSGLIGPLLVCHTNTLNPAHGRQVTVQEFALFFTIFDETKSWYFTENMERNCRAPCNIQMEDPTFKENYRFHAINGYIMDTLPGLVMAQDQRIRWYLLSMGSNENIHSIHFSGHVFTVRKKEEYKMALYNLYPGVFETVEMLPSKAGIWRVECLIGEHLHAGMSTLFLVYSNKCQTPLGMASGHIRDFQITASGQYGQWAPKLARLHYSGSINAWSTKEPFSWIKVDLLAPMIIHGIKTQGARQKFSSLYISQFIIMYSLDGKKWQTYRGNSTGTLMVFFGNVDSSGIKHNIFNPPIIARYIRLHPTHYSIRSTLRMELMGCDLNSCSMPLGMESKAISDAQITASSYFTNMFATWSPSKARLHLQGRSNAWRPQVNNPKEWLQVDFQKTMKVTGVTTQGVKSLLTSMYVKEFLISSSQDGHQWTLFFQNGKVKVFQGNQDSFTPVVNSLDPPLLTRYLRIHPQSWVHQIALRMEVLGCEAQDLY

T3 sequence (P12259 29-2224): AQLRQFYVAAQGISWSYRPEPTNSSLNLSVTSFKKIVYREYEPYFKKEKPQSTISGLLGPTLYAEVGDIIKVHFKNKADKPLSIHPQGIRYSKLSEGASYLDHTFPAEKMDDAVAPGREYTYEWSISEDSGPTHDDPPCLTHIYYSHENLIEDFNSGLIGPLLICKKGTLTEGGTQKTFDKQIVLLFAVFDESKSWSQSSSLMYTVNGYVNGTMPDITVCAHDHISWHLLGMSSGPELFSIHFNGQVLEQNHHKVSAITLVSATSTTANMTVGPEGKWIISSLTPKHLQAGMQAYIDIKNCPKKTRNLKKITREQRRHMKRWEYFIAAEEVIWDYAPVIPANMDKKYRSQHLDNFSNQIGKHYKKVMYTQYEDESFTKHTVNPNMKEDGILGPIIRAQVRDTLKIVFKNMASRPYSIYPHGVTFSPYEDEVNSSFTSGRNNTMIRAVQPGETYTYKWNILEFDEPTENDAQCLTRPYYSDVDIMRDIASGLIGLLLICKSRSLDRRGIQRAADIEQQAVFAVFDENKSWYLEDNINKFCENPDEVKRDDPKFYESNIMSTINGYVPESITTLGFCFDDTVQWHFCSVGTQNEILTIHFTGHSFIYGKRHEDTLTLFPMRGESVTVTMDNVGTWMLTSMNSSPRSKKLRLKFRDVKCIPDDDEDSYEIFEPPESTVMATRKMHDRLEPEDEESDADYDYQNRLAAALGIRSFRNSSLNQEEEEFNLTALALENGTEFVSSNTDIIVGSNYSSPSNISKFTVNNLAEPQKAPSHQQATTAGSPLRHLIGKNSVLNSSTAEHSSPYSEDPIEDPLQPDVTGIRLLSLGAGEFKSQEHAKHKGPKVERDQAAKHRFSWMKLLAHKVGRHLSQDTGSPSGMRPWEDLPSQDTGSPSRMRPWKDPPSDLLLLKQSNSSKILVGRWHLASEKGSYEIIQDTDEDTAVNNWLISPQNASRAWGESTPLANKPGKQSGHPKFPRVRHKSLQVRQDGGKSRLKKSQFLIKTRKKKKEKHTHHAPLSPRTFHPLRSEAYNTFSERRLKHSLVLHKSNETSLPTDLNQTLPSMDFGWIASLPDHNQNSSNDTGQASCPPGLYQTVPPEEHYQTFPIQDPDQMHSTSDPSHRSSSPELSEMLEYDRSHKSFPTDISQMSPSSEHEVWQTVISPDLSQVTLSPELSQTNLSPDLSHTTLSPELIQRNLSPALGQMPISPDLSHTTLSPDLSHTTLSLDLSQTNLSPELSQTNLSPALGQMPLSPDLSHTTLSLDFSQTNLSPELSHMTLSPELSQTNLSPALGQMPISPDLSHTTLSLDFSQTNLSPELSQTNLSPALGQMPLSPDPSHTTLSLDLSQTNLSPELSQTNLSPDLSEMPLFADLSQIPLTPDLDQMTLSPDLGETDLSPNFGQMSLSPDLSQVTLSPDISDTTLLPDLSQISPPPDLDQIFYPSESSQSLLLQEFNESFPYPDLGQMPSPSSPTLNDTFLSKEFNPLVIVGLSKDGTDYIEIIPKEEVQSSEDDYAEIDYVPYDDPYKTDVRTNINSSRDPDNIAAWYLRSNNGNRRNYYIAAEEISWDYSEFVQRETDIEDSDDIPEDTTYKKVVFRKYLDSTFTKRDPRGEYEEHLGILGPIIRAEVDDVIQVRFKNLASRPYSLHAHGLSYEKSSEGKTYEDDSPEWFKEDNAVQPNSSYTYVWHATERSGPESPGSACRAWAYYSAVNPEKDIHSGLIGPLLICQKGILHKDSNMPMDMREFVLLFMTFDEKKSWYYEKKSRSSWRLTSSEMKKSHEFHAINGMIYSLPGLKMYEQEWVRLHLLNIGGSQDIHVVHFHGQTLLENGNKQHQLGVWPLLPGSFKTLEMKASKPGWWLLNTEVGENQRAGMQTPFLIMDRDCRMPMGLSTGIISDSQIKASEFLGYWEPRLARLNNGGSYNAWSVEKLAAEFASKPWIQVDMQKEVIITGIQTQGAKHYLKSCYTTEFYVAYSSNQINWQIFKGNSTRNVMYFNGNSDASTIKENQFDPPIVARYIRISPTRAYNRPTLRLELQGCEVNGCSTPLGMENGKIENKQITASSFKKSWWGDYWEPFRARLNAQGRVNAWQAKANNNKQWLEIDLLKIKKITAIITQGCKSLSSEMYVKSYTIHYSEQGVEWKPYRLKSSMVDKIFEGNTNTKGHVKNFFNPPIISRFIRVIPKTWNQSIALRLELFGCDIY
T1 sequence (P00740 47-461): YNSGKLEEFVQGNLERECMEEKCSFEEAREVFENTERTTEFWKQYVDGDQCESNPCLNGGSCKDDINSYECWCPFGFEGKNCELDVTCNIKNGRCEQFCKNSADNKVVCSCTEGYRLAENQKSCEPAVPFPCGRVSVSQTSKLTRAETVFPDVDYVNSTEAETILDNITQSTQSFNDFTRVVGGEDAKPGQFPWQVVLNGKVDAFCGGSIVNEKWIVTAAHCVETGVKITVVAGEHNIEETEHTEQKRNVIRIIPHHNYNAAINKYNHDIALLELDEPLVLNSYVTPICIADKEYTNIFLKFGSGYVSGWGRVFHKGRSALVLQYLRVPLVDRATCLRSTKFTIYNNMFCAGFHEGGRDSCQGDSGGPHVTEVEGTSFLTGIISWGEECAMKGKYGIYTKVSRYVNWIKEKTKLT
T2 sequence (P12259 29-2224): as the sequence (P12259 29-2224) above

For `CN(C)c1ccc2nc3ccc(=[N+](C)C)cc-3sc2c1` [MB, methylene blue], the “Factor IX” value (coagulation factor IX [1]; Methylene Blue 1 μM) was 1.9 E/ml, the “Factor IX” value (coagulation factor IX [1]; Methylene Blue 2.5 μM) was 1.6 E/ml and the “Factor IX” value (coagulation factor IX [1]; Methylene Blue 5 μM) was 1.45 E/ml. For the same molecule, the “Factor IX” value (coagulation factor IX [1]; Methylene Blue 10 μM) was 1.20 E/ml, the “Factor IX” value (coagulation factor IX [1]; Methylene Blue 20 μM) was 1.10 E/ml and the “MB concentration from which factor IX activity is inhibited” value (coagulation factor IX [1]) was 2.5 µM. For the same molecule, the “Inactivation Rate” value (SV40) was >4.00 log10 TCID50, the “Virus Titer” value (adeno-virus; Sample C: F/T + MB + 60 min pre-incubation + 60 min irradiation) was 2.5 Log10 TCID50 and the “Virus Titer” value (adeno-virus; Sample D: MB + F/T, no irradiation) was 7.5 Log10 TCID50. The “Virus Titer” value (adeno-virus; Sample E: MB + F/T + 10 min irradiation) was 5.0 Log10 TCID50, the “Virus Titer” value (adeno-virus; Sample F: MB + F/T + 30 min irradiation) was 5.0 Log10 TCID50 and the “Virus Titer” value (adeno-virus; Sample G: MB + F/T + 60 min irradiation) was 4.0 Log10 TCID50. For the same molecule, the “Factor V” value (factor V) was 0.96 U/ml, the “concentration of MB required for complete inactivation of VSV” value (VSV [2]) was 0.5 µM and the “inactivation factor (VSV completely inactivated)” value (VSV [2]) was “more than 4 log10”. For the same molecule, the “Factor IX” value (coagulation factor IX [3]; light exposure 0 h, MB 1 μM) was 1.20 E/ml, the “Factor IX” value (coagulation factor IX [3]; light exposure 0 h, MB 2.5 μM) was 0.46 E/ml and the “Factor IX” value (coagulation factor IX [3]; light exposure 0 h, MB 10 μM) was 0.44 E/ml. The “Factor IX” value (coagulation factor IX [3]; light exposure 1 h, MB 1 μM) was 0.92 E/ml, the “Factor IX” value (coagulation factor IX [3]; light exposure 1 h, MB 2.5 μM) was 0.82 E/ml and the “Factor IX” value (coagulation factor IX [3]; light exposure 1 h, MB 10 μM) was 0.68 E/ml. The “Factor IX” value (coagulation factor IX [3]; light exposure 2 h, MB 1 μM) was 0.90 E/ml, the “Factor IX” value (coagulation factor IX [3]; light exposure 2 h, MB 2.5 μM) was 0.72 E/ml and the “Factor IX” value (coagulation factor IX [3]; light exposure 2 h, MB 10 μM) was 0.74 E/ml. The “Factor IX” value (coagulation factor IX [3]; light exposure 4 h, MB 1 μM) was 0.94 E/ml, the “Factor IX” value (coagulation factor IX [3]; light exposure 4 h, MB 2.5 μM) was 0.82 E/ml and the “Factor IX” value (coagulation factor IX [3]; light exposure 4 h, MB 10 μM) was 0.64 E/ml. For the same molecule, the “side effects in therapeutic use” value [4] was “without any significant side effects”, the “Factor V” value (coagulation factor V; light exposure 0 h, MB 1 μM) was 0.86 E/ml and the “Factor V” value (coagulation factor V; light exposure 0 h, MB 2.5 μM) was 0.82 E/ml. The “Factor V” value (coagulation factor V; light exposure 0 h, MB 10 μM) was 0.72 E/ml, the “Factor V” value (coagulation factor V; light exposure 1 h, MB 1 μM) was 0.72 E/ml and the “Factor V” value (coagulation factor V; light exposure 1 h, MB 2.5 μM) was 0.68 E/ml. For the same molecule, the “Factor V” value (coagulation factor V; light exposure 1 h, MB 10 μM) was 0.47 E/ml, the “Factor V” value (coagulation factor V; light exposure 2 h, MB 1 μM) was 0.64 E/ml and the “Factor V” value (coagulation factor V; light exposure 2 h, MB 2.5 μM) was 0.68 E/ml. The “Factor V” value (coagulation factor V; light exposure 2 h, MB 10 μM) was 0.60 E/ml, the “Factor V” value (coagulation factor V; light exposure 4 h, MB 1 μM) was 0.56 E/ml and the “Factor V” value (coagulation factor V; light exposure 4 h, MB 2.5 μM) was 0.49 E/ml. The “Factor V” value (coagulation factor V; light exposure 4 h, MB 10 μM) was 0.42 E/ml, the “reduction of infectious titer of VSV by irradiation” value [5] was “more than 6 log10” and the “Inactivation Rate” value (HIV-1) was >6.50 log10 TCID50. The “Inactivation Rate” value (Semliki Forest) was >7.00 log10 TCID50, the “Inactivation Rate” value (Influenza) was 5.10 log10 TCID50 and the “Inactivation Rate” value (Vesicular Stomatitis) was >4.89 * log10 TCID50. For the same molecule, the “reduction of infectious titer of VSV” value (VSV [6]) was “more than 5 log10-steps”, the “reduction of infectious VSV titer” value (VSV [7]) was “more than 6 log10” and the Virus Titer (adenovirus; pre-incubation 0 h) was 6.0 log10 TCID50. It also gave a Virus Titer (adenovirus; pre-incubation 1 h) of 5.5 log10 TCID50, a Virus Titer (adenovirus; pre-incubation 4 h) of 6.0 log10 TCID50 and a Virus Titer (adenovirus; pre-incubation 24 h) of 6.0 log10 TCID50. The “change in viral infectivity” value (adenovirus; regardless of the pre-incubation time) was “no change in viral infectivity”, the “Inactivation Rate” value (HIV-2) was >3.81 * log10 TCID50 and the “Inactivation Rate” value (Calici) was >3.9 * log10 TCID50. For the same molecule, the “Factor VIII” value (factor VIII) was 0.42 U/ml.
